Measured values published in ChEMBL document CHEMBL3797052 (Eur J Med Chem, 2016).

Experiments:
T47D = experiment: Antiproliferative activity against human T47D cells assessed as cell growth at 10^-4 M after 48 hrs by sulforhodamine B assay; assay type: functional; conditions: read-out: Activity
[1] = Antiproliferative activity against human SNB19 cells assessed as cell growth at 10^-8 M after 48 hrs by sulforhodamine B assay; assay type: functional; conditions: SNB-19, 48 h, read-out: Activity
NCI-H522 = experiment: Antiproliferative activity against human NCI-H522 cells assessed as growth inhibition after 48 hrs by sulforhodamine B assay; assay type: functional; conditions: NCI-H522, 48 h
[2] = Antiproliferative activity against human OVCAR4 cells assessed as cell growth at 10^-7 M after 48 hrs by sulforhodamine B assay; assay type: functional; conditions: OVCAR-4, 48 h, read-out: Activity
M14 [3] = experiment: Antiproliferative activity against human M14 cells assessed as cell growth at 10^-7 M after 48 hrs by sulforhodamine B assay; assay type: functional; conditions: M14, 48 h, read-out: Activity
SK-MEL-28 [4] = experiment: Antiproliferative activity against human SK-MEL-28 cells assessed as cell growth at 10^-8 M after 48 hrs by sulforhodamine B assay; assay type: functional; conditions: SK-MEL-28, 48 h, read-out: Activity
[5] = Antiproliferative activity against human HOP62 cells assessed as cell growth at 10^-6 M after 48 hrs by sulforhodamine B assay; assay type: functional; conditions: HOP-62, 48 h, read-out: Activity
SK-MEL-28 [6] = experiment: Antiproliferative activity against human SK-MEL-28 cells assessed as cell growth at 10^-7 M after 48 hrs by sulforhodamine B assay; assay type: functional; conditions: SK-MEL-28, 48 h, read-out: Activity
[7] = Antiproliferative activity against human Caki1 cells assessed as cell growth at 10^-4 M after 48 hrs by sulforhodamine B assay; assay type: functional; conditions: CAKI-1, 48 h, read-out: Activity
SK-MEL-5 = experiment: Antiproliferative activity against human SK-MEL-5 cells assessed as cell growth at 10^-6 M after 48 hrs by sulforhodamine B assay; assay type: functional; conditions: SK-MEL-5, 48 h, read-out: Activity
MDA-MB-231 = experiment: Antiproliferative activity against human MDA-MB-231 cells assessed as cell growth at 10^-4 M after 48 hrs by sulforhodamine B assay; assay type: functional; conditions: MDA-MB-231, 48 h, read-out: Activity
M14 [8] = experiment: Antiproliferative activity against human M14 cells assessed as cell growth at 10^-8 M after 48 hrs by sulforhodamine B assay; assay type: functional; conditions: M14, 48 h, read-out: Activity
[9] = Antiproliferative activity against human SF295 cells assessed as growth inhibition after 48 hrs by sulforhodamine B assay; assay type: functional; conditions: SF-295, 48 h
MDA-MB-468 = experiment: Antiproliferative activity against human MDA-MB-468 cells assessed as growth inhibition after 48 hrs by sulforhodamine B assay; assay type: functional; conditions: MDA-MB-468, 48 h
[10] = Antiproliferative activity against human SW620 cells assessed as growth inhibition after 48 hrs by sulforhodamine B assay; assay type: functional; conditions: SW-620, 48 h
[11] = Antiproliferative activity against human OVCAR3 cells assessed as cell growth at 10^-6 M after 48 hrs by sulforhodamine B assay; assay type: functional; conditions: OVCAR-3, 48 h, read-out: Activity
SN12C = experiment: Antiproliferative activity against human SN12C cells assessed as growth inhibition after 48 hrs by sulforhodamine B assay; assay type: functional
CCRF-CEM = experiment: Antiproliferative activity against human CCRF-CEM cells assessed as growth inhibition after 48 hrs by sulforhodamine B assay; assay type: functional
[12] = Antiproliferative activity against human SF539 cells assessed as cell growth at 10^-7 M after 48 hrs by sulforhodamine B assay; assay type: functional; conditions: SF-539, 48 h, read-out: Activity
NCI-H322M = experiment: Antiproliferative activity against human NCI-H322M cells assessed as cell growth at 10^-7 M after 48 hrs by sulforhodamine B assay; assay type: functional; conditions: read-out: Activity
[13] = Antiproliferative activity against human HCT116 cells assessed as cell growth at 10^-4 M after 48 hrs by sulforhodamine B assay; assay type: functional; conditions: HCT-116, 48 h, read-out: Activity
[14] = Antiproliferative activity against human SF295 cells assessed as cell growth at 10^-6 M after 48 hrs by sulforhodamine B assay; assay type: functional; conditions: SF-295, 48 h, read-out: Activity
NCI-H226 = experiment: Antiproliferative activity against human NCI-H226 cells assessed as cell growth at 10^-7 M after 48 hrs by sulforhodamine B assay; assay type: functional; conditions: NCI-H226, 48 h, read-out: Activity
[15] = Antiproliferative activity against human BT549 cells assessed as cell growth at 10^-4 M after 48 hrs by sulforhodamine B assay; assay type: functional; conditions: BT-549, 48 h, read-out: Activity
[16] = Antiproliferative activity against human OVCAR5 cells assessed as growth inhibition after 48 hrs by sulforhodamine B assay; assay type: functional; conditions: OVCAR-5, 48 h
[17] = Antiproliferative activity against human OVCAR8 cells assessed as cell growth at 10^-8 M after 48 hrs by sulforhodamine B assay; assay type: functional; conditions: OVCAR-8, 48 h, read-out: Activity
M14 [18] = experiment: Antiproliferative activity against human M14 cells assessed as growth inhibition after 48 hrs by sulforhodamine B assay; assay type: functional; conditions: M14, 48 h
[19] = Antiproliferative activity against human SNB19 cells assessed as cell growth at 10^-7 M after 48 hrs by sulforhodamine B assay; assay type: functional; conditions: SNB-19, 48 h, read-out: Activity
[20] = Antiproliferative activity against human HOP92 cells assessed as cell growth at 10^-4 M after 48 hrs by sulforhodamine B assay; assay type: functional; conditions: HOP-92, 48 h, read-out: Activity
hERG (KCNH2) = hERG (KCNH2) (Homo sapiens, UniProt Q12809); experiment: Inhibition of human ERG assessed as reduction in channel current at 100 uM by automated patch-clamp electrophysiology assay
HT-29 = experiment: Antiproliferative activity against human HT-29 cells assessed as cell growth at 10^-4 M after 48 hrs by sulforhodamine B assay; assay type: functional; conditions: HT-29, 48 h, read-out: Activity
[21] = Antiproliferative activity against human SNB19 cells assessed as cell growth at 10^-6 M after 48 hrs by sulforhodamine B assay; assay type: functional; conditions: SNB-19, 48 h, read-out: Activity
[22] = Antiproliferative activity against human UACC62 cells assessed as cell growth at 10^-6 M after 48 hrs by sulforhodamine B assay; assay type: functional; conditions: UACC-62, 48 h, read-out: Activity
[23] = Antiproliferative activity against human PC3 cells assessed as cell growth at 10^-6 M after 48 hrs by sulforhodamine B assay; assay type: functional; conditions: PC-3, 48 h, read-out: Activity
NCI-H460 = experiment: Antiproliferative activity against human NCI-H460 cells assessed as growth inhibition after 48 hrs by sulforhodamine B assay; assay type: functional; conditions: NCI-H460, 48 h
[24] = read-out: LC50 (the source's name)

hERG (KCNH2), sequence (Q12809 whole entry): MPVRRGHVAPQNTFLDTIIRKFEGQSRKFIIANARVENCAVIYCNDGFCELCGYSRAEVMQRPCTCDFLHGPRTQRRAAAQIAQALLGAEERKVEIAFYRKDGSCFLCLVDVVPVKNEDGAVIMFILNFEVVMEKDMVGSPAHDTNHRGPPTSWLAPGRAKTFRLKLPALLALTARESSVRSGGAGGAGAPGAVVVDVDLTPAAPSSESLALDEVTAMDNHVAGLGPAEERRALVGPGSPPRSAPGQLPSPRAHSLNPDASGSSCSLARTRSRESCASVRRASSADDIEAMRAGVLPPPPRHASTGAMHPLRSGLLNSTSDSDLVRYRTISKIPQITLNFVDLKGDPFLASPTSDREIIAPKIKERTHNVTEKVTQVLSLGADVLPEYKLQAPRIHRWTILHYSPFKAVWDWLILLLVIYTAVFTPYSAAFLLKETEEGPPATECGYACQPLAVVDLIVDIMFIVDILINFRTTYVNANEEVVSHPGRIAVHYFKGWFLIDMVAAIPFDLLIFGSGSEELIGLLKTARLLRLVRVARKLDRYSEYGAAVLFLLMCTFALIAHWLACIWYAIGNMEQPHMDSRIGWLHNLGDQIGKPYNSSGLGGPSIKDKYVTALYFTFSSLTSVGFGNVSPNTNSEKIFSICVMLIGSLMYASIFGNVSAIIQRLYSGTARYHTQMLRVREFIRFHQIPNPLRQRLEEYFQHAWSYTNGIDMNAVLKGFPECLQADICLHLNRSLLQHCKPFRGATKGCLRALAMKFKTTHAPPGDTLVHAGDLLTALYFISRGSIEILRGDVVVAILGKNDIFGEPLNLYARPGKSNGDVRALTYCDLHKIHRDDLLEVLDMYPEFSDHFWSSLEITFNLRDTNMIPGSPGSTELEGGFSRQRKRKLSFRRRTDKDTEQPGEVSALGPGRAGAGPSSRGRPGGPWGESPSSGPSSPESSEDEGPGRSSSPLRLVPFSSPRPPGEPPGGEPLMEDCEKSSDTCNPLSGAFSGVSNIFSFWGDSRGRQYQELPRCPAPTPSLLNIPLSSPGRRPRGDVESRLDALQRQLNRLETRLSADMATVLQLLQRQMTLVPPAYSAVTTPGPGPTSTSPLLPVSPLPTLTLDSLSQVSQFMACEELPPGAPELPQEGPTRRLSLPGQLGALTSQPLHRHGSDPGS

With CNC(=O)c1cc(Oc2ccc3nc(NC(=O)Nc4cc(C(F)(F)F)cc(C(F)(F)F)c4)sc3c2)ccn1 the growth at 100 µM (T47D) was -60%, the growth at 0.01 µM [1] was 99% and the GI50 (NCI-H522) was 0.534 µM. For the same molecule, the LC50 (concentration killing 50% of cells) (NCI-H522) was 8.1 µM, the TGI (NCI-H522) was 2.28 µM and the growth at 0.1 µM [2] was 94%. For the same molecule, the growth at 0.1 µM (M14 [3]) was 104%, the growth at 0.01 µM (SK-MEL-28 [4]) was 93% and the growth at 1 µM [5] was 58%. The growth at 0.1 µM (SK-MEL-28 [6]) was 96%, the growth at 100 µM [7] was -83% and the growth at 1 µM (SK-MEL-5) was 36%. The growth at 100 µM (MDA-MB-231) was -59%, the growth at 0.01 µM (M14 [8]) was 91% and the GI50 [9] was 1.08 µM. The TGI [9] was 2.41 µM, the CC50 [9, 24] was 5.38 µM and the GI50 (MDA-MB-468) was 0.399 µM. The TGI (MDA-MB-468) was 1.75 µM, the CC50 (MDA-MB-468; [24]) was 6.08 µM and the GI50 [10] was 1.56 µM. The TGI [10] was 3.29 µM, the CC50 [10, 24] was 6.97 µM and the growth at 1 µM [11] was 52%. It also gave a GI50 (SN12C) of 1.64 µM, a TGI (SN12C) of 3.79 µM and a CC50 (SN12C; [24]) of 8.76 µM. The GI50 (CCRF-CEM) was 1.07 µM, the TGI (CCRF-CEM) was 5.83 µM and the CC50 (CCRF-CEM; [24]) was greater than 100 µM. It also gave a growth at 0.1 µM [12] of 99%, a growth at 0.1 µM (NCI-H322M) of 102% and a growth at 100 µM [13] of -95%. For the same molecule, the growth at 1 µM [14] was 55%, the growth at 0.1 µM (NCI-H226) was 87% and the growth at 100 µM [15] was -63%. The GI50 [16] was 1.55 µM, the TGI [16] was 3.52 µM and the CC50 [16, 24] was 7.97 µM. It also gave a growth at 0.01 µM [17] of 102%, a GI50 (M14 [18]) of 1.5 µM and a TGI (M14 [18]) of 3.22 µM. It also gave a CC50 (M14 [18]; [24]) of 6.9 µM, a growth at 0.1 µM [19] of 111% and a growth at 100 µM [20] of -77%. The inhibition at 100 µM (hERG (KCNH2)) was 30.2%, the growth at 100 µM (HT-29) was -82% and the growth at 1 µM [21] was 62%. For the same molecule, the growth at 1 µM [22] was 37%, the growth at 1 µM [23] was 37% and the GI50 (NCI-H460) was 1.23 µM. For the same molecule, the LC50 (concentration killing 50% of cells) (NCI-H460) was 6.6 µM and the TGI (NCI-H460) was 2.85 µM.
